Reference: US9757379B2, “Inhibition of HIF-2α heterodimerization with HIF1β (ARNT)” (The Board of Regents of the University of Texas System, priority 2012, dated 2017)
pIC50, pKd: −log10 of the molar value. Read-outs that look alike come from different tables or passages of the source.

Tests used:
[1] = molecular target: HIF-2α PAS-B (Homo sapiens, UniProt Q99814); experiment: Isothermal titration calorimetry (ITC) on HIF-2α PAS-B;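 note: Wild-type protein (200 µM) titrated into 5-10 µM compound, heats of dilution from a compound-free titration subtracted, isotherms fit to a single-site model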
Chain of HIF-2α PAS-B (Q99814 240-350): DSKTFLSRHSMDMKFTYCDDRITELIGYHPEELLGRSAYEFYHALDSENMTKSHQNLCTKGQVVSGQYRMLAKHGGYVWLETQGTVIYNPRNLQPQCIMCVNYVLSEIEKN
Source text: ITC, as described more fully below, introduces a wild-type HIF-2α PAS-B solution into a to-be-assayed compound solution using, for example, a VP-ITC instrument (MicroCal). After subtracting heats of dilution evolved from the titrating protein, e.g., wild-type HIF-2α PAS-B, into a compound-free buffer, data were fit to a single-site binding model with, for example, MicroCal Origin® software to determine complex affinities.
The following is a general procedure describing the ITC assay Thermodynamic parameters of small molecule binding are determined using a MicroCal VP-ITC calorimeter. Solutions of HIF-2α PAS-B are extensively dialyzed against buffer (50 mM Tris (pH 7.5), 20 mM NaCl and 5 mM beta-mercaptoethanol), which is subsequently used to prepare a matched compound solution by dilution from a 50 mM compound stock in 100% DMSO. […] Each isotherm is recorded by injecting 200 μM protein (syringe) into 5-10 μM solutions of compound (cell), accounting for dilution heats by subtracting data from a control titration of 200 μM protein into a matched buffer-DMSO solution. Thermograms are fit to a single site binding model to extract equilibrium binding parameters.

[2] = molecular target: HIF-2α PAS-B*/ARNT PAS-B* heterodimer (Homo sapiens, UniProt Q99814, R247E); experiment: AlphaScreen, HIF-2α PAS-B*/ARNT PAS-B* heterodimerization;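 note: GST-tagged HIF-2α PAS-B* and FLAG-tagged ARNT PAS-B* with glutathione donor and anti-FLAG acceptor beads, luminescence after 680 nm excitation, loss of signal indicating disrupted heterodimer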
Chain of HIF-2α PAS-B*/ARNT PAS-B* heterodimer (Q99814 240-350 R247E, one chain of several): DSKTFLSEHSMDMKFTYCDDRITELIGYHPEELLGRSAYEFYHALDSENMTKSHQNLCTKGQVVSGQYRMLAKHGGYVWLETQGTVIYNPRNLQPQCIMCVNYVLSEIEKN
Source text: (FIG. 8a) As shown in the cartoon schematic, interactions between GST-tagged HIF-2α (green) and FLAG-tagged ARNT (blue) PAS-B* domains recruit both donor beads (D), coated with glutathione, and acceptor beads (A), coated with anti-FLAG antibodies, to one another. Upon illumination with red (680 nm) light, donor beads will generate short-lived singlet oxygen (^1O2). Nearby (<200 nm) acceptor beads can react with ^1O2 to emit light at shorter wavelengths (top). Compounds that disrupt the complex correspondingly eliminate this signal (bottom). Compounds that non-specifically interfere with the AlphaScreen assay can be identified with a counterscreen in which the ARNT PAS-B* domain was simultaneously tagged with both the GST and FLAG tags. (FIG. 8b) The AlphaScreen signal (relative units; RU) reflecting protein-protein interactions between 25 (open triangles), 50 (open circles) or 100 (closed circles) nM HIF-2α PAS-B* increases with increasing concentrations of ARNT PAS-B*. At the highest ARNT PAS-B* concentrations, a decrease in signal reflects the hook effect. At these concentrations, protein binding to the acceptor beads has become saturated and free ARNT PAS-B* competes with the coated acceptor beads for the donor beads bound to HIF-2α PAS-B*. […] Assays were performed in triplicate and the error bars represent±SD.
Inhibition of heterodimerization of HIF-2α to HIF1β (ARNT) may be determined in an Amplified Luminescent Proximity Homogeneous Assay (AlphaScreen).
The AlphaScreen assay can be done according to the following procedures: • 1. Prepare cold binding buffer solution: 20 mM Tris-Cl (pH=7.5), 100 mM NaCl, 1 mM DTT, 0.02% Tween-20 (final concentration) and place on ice to keep temperature approximately 4° C. • 2. Prepare Protein Mix: To a 50 mL conical tube add 23 mL of cold buffer and 0.04 mL of both GST-HIF2α PASB* (100 μM) and ARNT-PASB*-Flag (100 μM). • 3. Distribute to 96 well plate: Add 60 μL of protein mix to each wells. • 4. Adding Compound: Dissolve compounds in DMSO to obtain a final concentration of 10 mM. Then create the appropriate dilutions for your particular compound in glass vials. Once all the dilutions are ready place 1 μL of compound in each well. • 5. Prepare Bead mix: In the dark room using green light only create a tube with 3.84 mL of cold buffer and 3 μL of GST Donor beads and Flag acceptor beads. • 6. Distribute Bead mix: Invert the tube a couple times before distributing 40 μL of mix to each well. • 7. Incubation: After adding beads wrap the plate in tin foil twice and remove the covered plate from dark room. Incubate the plate at room temperature while rocking gently for 4 hours. • 8. Read: After 4 hours place the uncovered plate in the plate reader. Make sure the room is relatively tree of white light when placing the plate in the machine. It is ok to have the green light on if needed. • 9. […] Flag acceptor beads should be aliquoted into small opaque tubes (20-50 μl per tube) upon arrival from the manufacturer. Place both sets of beads in 4° C. storage when not in use. • 11. Avoid expose beads to white light. • 12. Pipette beads up and down several times before adding to a tube of cold buffer solution. • 13. Amount of Beads used for Bead mix may vary from batch to batch.

[3] = system: VEGF; experiment: VEGF protein secretion by ELISA, 786-O cells; type: cell-based, human; settings: about 18 hours, 0.00655-20 μM
Protocol: VEGF protein secretion was measured by ELISA following incubation of cultured 786-O cells for about eighteen (18) hours with Compund (1) (FIG. 19a) or with Compound (47) (FIG. 19b).

[4] = molecular target: GST-ARNT-PAS-B*-FLAG (Homo sapiens, UniProt P27540, E362R); experiment: AlphaScreen control reaction with doubly tagged protein; type: biochemical; settings: single doubly tagged protein
Chain of GST-ARNT-PAS-B*-FLAG (P27540 355-470 E362R): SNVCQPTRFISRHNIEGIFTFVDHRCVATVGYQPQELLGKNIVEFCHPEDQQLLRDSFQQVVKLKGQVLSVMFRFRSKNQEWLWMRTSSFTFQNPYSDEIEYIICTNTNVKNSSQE
Source text: Upon illumination with red (680 nm) light, donor beads will generate short-lived singlet oxygen (^1O2). Nearby (<200 nm) acceptor beads can react with ^1O2 to emit light at shorter wavelengths (top). Compounds that disrupt the complex correspondingly eliminate this signal (bottom). Compounds that non-specifically interfere with the AlphaScreen assay can be identified with a counterscreen in which the ARNT PAS-B* domain was simultaneously tagged with both the GST and FLAG tags. […] At these concentrations, protein binding to the acceptor beads has become saturated and free ARNT PAS-B* competes with the coated acceptor beads for the donor beads bound to HIF-2α PAS-B*. […] Assays were performed in triplicate and the error bars represent±SD.

| pIC50 [2] | pKd [1] | Structure (SMILES) | other results |
| --- | --- | --- | --- |
| – | 5.37 | O=[N+]([O-])c1cccc(Nc2ccc3nonc3c2[N+](=O)[O-])c1 [Compound 27] | – |
| 6.70 | 7.49 | Fc1ccc(Cl)c(F)c1[C@@H]1C[C@H](c2cccc(Br)c2)Nc2nnnn21 (racemic) [Compound 61, (+/−)-(cis)-5-(3-bromophenyl)-7-(3-chloro-2,6-difluorophenyl)-4,5,6,7-tetrahydrotetrazolo[1,5-a]pyrimidine] | – |
| 7.05 | 6.59 | O=[N+]([O-])c1c(Nc2ccc(Cl)c(C(F)(F)F)c2)ccc2nonc12 [Compound 9, N-(4-chloro-3-(trifluoromethyl)phenyl)-4-nitrobenzo[c][1,2,5]oxadiazol-5-amine] | – |
| < 4.52 | – | O=[N+]([O-])c1c(NCc2cc(F)ccc2C(F)(F)F)ccc2nonc12 [Compound 22] | – |
| 6.70 | 6.25 | Brc1cccc([C@H]2C[C@@H](c3ccccc3Br)n3nnnc3N2)c1 (racemic) [Compound 54, (+/−)-(cis)-7-(2-bromophenyl)-5-(3-bromophenyl)-4,5,6,7-tetrahydrotetrazolo[1,5-a]pyrimidine] | – |
| < 5.00 | – | COc1cccc(Nc2ccc3nonc3c2[N+](=O)[O-])c1 [Compound 23] | – |
| – | – | O=[N+]([O-])c1c(NCc2cc(F)cc(Cl)c2)ccc2nonc12 [Compound 21] | pKd ([1]; read-out: ITC Kd): 5.70 |
| > 8.00 | 7.51 | Fc1c(Br)ccc(Br)c1[C@H]1C[C@@H](c2cccc(Br)c2)Nc2nnnn21 [Compound 63, (5S,7R)-5-(3-bromophenyl)-7-(3,6-dibromo-2-fluorophenyl)-4,5,6,7-tetrahydrotetrazolo[1,5-a]pyrimidine] | – |
| < 5.30 | – | O=[N+]([O-])c1c(NCc2ccc(Cl)cc2)ccc2nonc12 [Compound 19] | – |
| 6.52 | 6.47 | Clc1ccccc1[C@H]1C[C@@H](c2cccc(Br)c2)Nc2nnnn21 [Compound 52, (5S,7R)-5-(3-bromophenyl)-7-(2-chlorophenyl)-4,5,6,7-tetrahydrotetrazolo[1,5-a]pyrimidine] | – |
| – | 5.37 | O=[N+]([O-])c1ccccc1Nc1cc(F)cc(Cl)c1 (racemic) [Compound 33] | – |
| 6.82 | 6.88 | Clc1cccc([C@H]2C[C@@H](c3cccc(Br)c3)Nc3nnnn32)c1 [Compound 57] | – |
| 6.52 | 6.36 | Clc1ccccc1[C@@H]1C[C@H](c2cccc(Br)c2)Nc2nnnn21 (racemic) [Compound 51, (+/−)-(cis)-5-(3-bromophenyl)-7-(2-chlorophenyl)-4,5,6,7-tetrahydrotetrazolo[1,5-a]pyrimidine] | – |
| – | 5.68 | O=[N+]([O-])c1c(Nc2cccc(F)c2)ccc2nonc12 [Compound 28] | – |
| 6.22 | 6.06 | Brc1cccc([C@H]2C[C@@H](c3ccccc3I)n3nnnc3N2)c1 (racemic) [Compound 55, (+/−)-(cis)-5-(3-bromophenyl)-7-(2-iodophenyl)-4,5,6,7-tetrahydrotetrazolo[1,5-a]pyrimidine] | – |
| < 5.00 | – | O=[N+]([O-])c1c(Nc2cc(F)cc(Cl)c2)ccc2nn[nH]c12 [Compound 34] | – |

| pIC50 [2] | pKd [1] | Structure (SMILES) | other results |
| --- | --- | --- | --- |
| 6.15 | 6.12 | Fc1ccccc1[C@@H]1C[C@H](c2cccc(Br)c2)Nc2nnnn21 (racemic) [Compound 50, (+/−)-(cis)-5-(3-bromophenyl)-7-(2-fluorophenyl)-4,5,6,7-tetrahydrotetrazolo[1,5-a]pyrimidine] | – |
| – | 6.03 | CC(C)C[C@@H]1C[C@H](c2cccc(Br)c2)Nc2nnnn21 (racemic) [Compound 64, (+/−)-(cis)-5-(3-bromophenyl)-7-isobutyl-4,5,6,7-tetrahydrotetrazolo[1,5-a]pyrimidine] | – |
| < 5.00 | – | Cc1ccc(CNc2ccc3nonc3c2[N+](=O)[O-])cc1 [Compound 18] | – |
| > 7.00 | 7.36 | Fc1ccc(Br)c(F)c1[C@H]1C[C@@H](c2cccc(Br)c2)Nc2nnnn21 [Compound 62, (5S,7R)-7-(3-bromo-2,6-difluorophenyl)-5-(3-bromophenyl)-4,5,6,7-tetrahydrotetrazolo[1,5-a]pyrimidine] | – |
| 6.70 | 7.38 | Fc1c(Cl)cccc1[C@@H]1C[C@H](c2cccc(Br)c2)Nc2nnnn21 (racemic) [Compound 59, (+/−)-(cis)-5-(3-bromophenyl)-7-(3-chloro-2-fluorophenyl)-4,5,6,7-tetrahydrotetrazolo[1,5-a]pyrimidine] | – |
| 7.00 | 7.05 | Brc1cccc([C@@H]2C[C@H](c3cccc(Br)c3)n3nnnc3N2)c1 [Compound 58, (5S,7R)-5,7-bis(3-bromophenyl)-4,5,6,7-tetrahydrotetrazolo[1,5-a]pyrimidine] | – |
| – | – | CN(C)S(=O)(=O)c1c(Nc2cc(F)cc(Cl)c2)ccc2nonc12 [Compound 44] | pKd ([1]; read-out: ITC Kd): 5.30 |
| – | – | CNS(=O)(=O)c1c(Nc2cc(F)cc(Cl)c2)ccc2nonc12 [Compound 43] | pKd ([1]; read-out: ITC Kd): 5.30 |
| < 4.52 | ~5.22 | Nc1c(Nc2cc(F)cc(Cl)c2)ccc2nonc12 [Compound 39] | – |
| < 6.00 | 5.68 | O=[N+]([O-])c1c(Nc2cc(F)cc(F)c2)ccc2nonc12 [Compound 11, N-(3,5-difluorophenyl)-4-nitrobenzo[c][1,2,5]oxadiazol-5-amine] | – |
| < 4.52 | 6.28 | O=[N+]([O-])c1c(NCc2ccc(F)cc2C(F)(F)F)ccc2nonc12 [Compound 4, N-(4-fluoro-2-(trifluoromethyl)benzyl)-4-nitrobenzo[c][1,2,5]oxadiazol-5-amine] | – |
| – | ~5.52 | Fc1cc(Cl)cc(Nc2ccc3nonc3c2)c1 [Compound 38] | – |
| 6.46 | 6.57 | Fc1cc(Br)cc([C@@H]2C[C@H](c3ccccc3)n3nnnc3N2)c1 [Compound 49, (5S,7R)-5-(3-bromo-5-fluorophenyl)-7-phenyl-4,5,6,7-tetrahydrotetrazolo[1,5-a]pyrimidine] | – |
| 6.82 | 6.66 | O=[N+]([O-])c1c(Nc2ccc(Br)c(F)c2)ccc2nonc12 [Compound 7] | – |
| 6.70 | 6.97 | Clc1cccc([C@@H]2C[C@H](c3cccc(Br)c3)Nc3nnnn32)c1 (racemic) [Compound 56, (+/−)-(cis)-5-(3-bromophenyl)-7-(3-chlorophenyl)-4,5,6,7-tetrahydrotetrazolo[1,5-a]pyrimidine] | – |
| 6.40 | 6.72 | Clc1ccc(Br)cc1[C@H]1C[C@@H](c2cccc(Br)c2)Nc2nnnn21 [Compound 60, (5S,7R)-7-(5-bromo-2-chlorophenyl)-5-(3-bromophenyl)-4,5,6,7-tetrahydrotetrazolo[1,5-a]pyrimidine] | – |

| Structure (SMILES) | pIC50 [2] | pKd [1] | other results |
| --- | --- | --- | --- |
| O=[N+]([O-])c1c(Nc2ccc(Cl)c(Cl)c2)ccc2nonc12 [Compound 12, N-(3,4-dichlorophenyl)-4-nitrobenzo[c][1,2,5]oxadiazol-5-amine] | 6.92 | – | pKd ([1]; read-out: ITC Kd): 6.77 |
| O=[N+]([O-])c1c(NCc2ccccc2)ccc2nonc12 [Compound 17] | < 5.30 | – | – |
| O=[N+]([O-])c1c(Nc2cc(F)cc(Cl)c2)ccc2[nH]cnc12 [Compound 35] | < 5.30 | – | – |
| Fc1cc(Br)cc([C@@H]2C[C@H](c3cccc(Br)c3)n3nnnc3N2)c1 [Compound 47, (5S,7R)-5-(3-Bromo-5-fluorophenyl)-7-(3-bromophenyl)-4,5,6,7-tetrahydrotetrazolo[1,5-a]pyrimidine] | 7.00 | 7.08 | VEGF protein secretion [3]: reduce VEGF protein secretion in a dose-dependent manner |
| O=[N+]([O-])c1c(Nc2cccc(C(F)(F)F)c2)ccc2nonc12 [Compound 6, 4-nitro-N-(3-(trifluoromethyl)phenyl)benzo[c][1,2,5]oxadiazol-5-amine] | 6.34 | – | pKd ([1]; read-out: ITC Kd): 6.19 |
| O=[N+]([O-])c1c(NCc2cc(F)ccc2F)ccc2nonc12 [Compound 3, N-(2,5-difluorobenzyl)-4-nitrobenzo[c][1,2,5]oxadiazol-5-amine] | < 5.00 | < 5.00 | – |
| O=[N+]([O-])c1c(Nc2cc(F)cc(C(F)(F)F)c2)ccc2nonc12 [Compound 10, N-(3-fluoro-5-(trifluoromethyl)phenyl)-4-nitrobenzo[c][1,2,5]oxadiazol-5-amine] | 6.37 | – | pKd ([1]; read-out: ITC Kd): 6.43 |
| O=[N+]([O-])c1cc(Nc2ccc3nonc3c2[N+](=O)[O-])ccc1Cl [Compound 32] | 6.70 | – | Effect on AlphaScreen signal of control reaction [4]: No effect; pKd ([1]; read-out: ITC Kd): 5.96; Effect on HIF-2α/ARNT PAS-B* heterodimerization in AlphaScreen ([2]; triplicate): antagonizes HIF-2α/ARNT PAS-B* heterodimerization |
| O=[N+]([O-])c1c(Nc2cccc(Cl)c2)ccc2nonc12 [Compound 5, N-(3-chlorophenyl)-4-nitrobenzo[c][1,2,5]oxadiazol-5-amine] | 6.74 | – | pKd ([1]; read-out: ITC Kd): 6.80 |
| O=[N+]([O-])c1c(NCc2ccc(F)cc2Cl)ccc2nonc12 [Compound 2, N-(2-chloro-4-fluorobenzyl)-4-nitrobenzo[c][1,2,5]oxadiazol-5-amine] | 6.48 | – | pKd ([1]; read-out: ITC Kd): 6.30 |
| O=[N+]([O-])c1c(Nc2cccc(Cl)c2F)ccc2nonc12 [Compound 8, N-(3-chloro-2-fluorophenyl)-4-nitrobenzo[c][1,2,5]oxadiazol-5-amine] | 6.12 | – | pKd ([1]; read-out: ITC Kd): 5.96 |
